By EC50 is commonly meant the concentration needed to bring the measured effect to its halfway point.

The subject of this experiment is HEK293T cells carrying the ATF4 luciferase reporter. The experiment in a line: ATF4-Luc assay, in vitro model of Vanishing Cell White Matter Disease (VWMD). It is filed as cell-based. To be noted: Homo sapiens, HEK-293T, 1 μg/mL tunicamycin, 7 hours, One Glo luminescence. In short, it runs like this:
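Stable HEK293T line with human ATF4 5′-UTR–firefly luciferase reporter treated with 1 μg/mL tunicamycin plus 200 nM compound for 7 h. Luminescence read; EC50 derived.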
Regarding `CCc1cc(C(=O)NC23CC(NC(=O)COc4ccc(Cl)c(Cl)c4)(C2)C3)n(C)n1` [Compound 584, N-{3-[2-(3,4-dichlorophenoxy)acetamido]bicyclo[1.1.1]pentan-1-yl}-3-ethyl-1-methyl-1H-pyrazole-5-carboxamide], the EC50 was less than 50 nM.
Turning to `O=C(COc1ccc(Cl)c(F)c1)NC12CC(NC(=O)c3ccncc3F)(C1)C2` [Compound 817, N-{3-[2-(4-chloro-3-fluorophenoxy)acetamido]bicyclo[1.1.1]pentan-1-yl}-3-fluoropyridine-4-carboxamide], the EC50 was more than 2000 nM.
As to `O=C(COc1ccc(Cl)c(F)c1)NC12CCC(NC(=O)c3ccc(OC(F)(F)F)cc3)(CC1)C(O)C2` (centres unmarked) [Compound 225, N-{4-[2-(4-chloro-3-fluorophenoxy)acetamido]-2-hydroxybicyclo[2.2.2]octan-1-yl}-4-(trifluoromethoxy)benzamide], the EC50 lay in the range of 50 to 250 nM.
Turning to `Cc1cccnc1C(=O)NC12CC(NC(=O)COc3ccc(Cl)c(Cl)c3)(C1)C2` [Compound 739, N-{3-[2-(3,4-dichlorophenoxy)acetamido]bicyclo[1.1.1]pentan-1-yl}-3-methylpyridine-2-carboxamide], the EC50 was more than 2000 nM.
Regarding `Cc1ccc(C(=O)NC23CCC(NC(=O)COc4ccc(Cl)c(F)c4)(CC2)C[C@@H]3O)nc1` [Compound 589, N-{(2S)-4-[2-(4-chloro-3-fluorophenoxy)acetamido]-2-hydroxybicyclo[2.2.2]octan-1-yl}-5-methylpyridine-2-carboxamide], the EC50 was in the range of 50 to 250 nM.
In the case of `O=C(COc1ccc(Cl)c(F)c1)NC12CCC(NC(=O)c3cnccn3)(CC1)C[C@@H]2O` [Compound 670, N-{(3S)-4-[2-(4-chloro-3-fluorophenoxy)acetamido]-3-hydroxybicyclo[2.2.2]octan-1-yl}pyrazine-2-carboxamide], the concentration for a half-maximal effect (EC50) is less than 50 nM.
For the compound `Cn1nc2ccccc2c1C(=O)NC12CC(NC(=O)COc3ccc(Cl)c(F)c3)(C1)C2` [Compound 896, N-{3-[2-(4-chloro-3-fluorophenoxy)acetamido]bicyclo[1.1.1]pentan-1-yl}-2-methyl-2H-indazole-3-carboxamide], the EC50 lay within 1000 to 2000 nM.
Regarding `CCNc1ccc(C(=O)NC23CC(NC(=O)COc4ccc(Cl)c(F)c4)(C2)C3)nc1` [Compound 269, N-{3-[2-(4-chloro-3-fluorophenoxy)acetamido]bicyclo[1.1.1]pentan-1-yl}-5-(ethylamino)pyridine-2-carboxamide], the concentration for a half-maximal effect (EC50) lay within 250 to 1000 nM.
With `O=C(COc1ccc(Cl)c(F)c1)NC12CC(NC(=O)c3ccc4ncoc4c3)(C1)C2` [Compound 834, N-{3-[2-(4-chloro-3-fluorophenoxy)acetamido]bicyclo[1.1.1]pentan-1-yl}-1,3-benzoxazole-6-carboxamide] the figure was 250 to 1000 nM; with `O=C(COc1ccc(Cl)c(F)c1)NC12CC(NC(=O)c3cccc[n+]3[O-])(C1)C2` [Compound 403, N-{3-[2-(4-chloro-3-fluorophenoxy)acetamido]bicyclo[1.1.1]pentan-1-yl}-1-oxo-1λ^5-pyridine-2-carboxamide], more than 2000 nM.
Consider `O=C(COc1ccc(Cl)c(F)c1)NC12CC(Nc3ccnc(N4CCOCC4)n3)(C1)C2` [Compound 721, 2-(4-chloro-3-fluorophenoxy)-N-(3-{[2-(morpholin-4-yl)pyrimidin-4-yl]amino}bicyclo[1.1.1]pentan-1-yl)acetamide], for which the half-maximal effective concentration (EC50) was more than 2000 nM.
Regarding `O=C(COc1ccc(Cl)c(F)c1)NC12CC(NC(=O)c3cc4cccnc4s3)(C1)C2` [Compound 798, N-{3-[2-(4-chloro-3-fluorophenoxy)acetamido]bicyclo[1.1.1]pentan-1-yl}thieno[2,3-b]pyridine-2-carboxamide], the EC50 is more than 2000 nM.
`O=C(COc1ccc(Cl)c(F)c1)NC12CC(NC(=O)c3cscn3)(C1)C2` [Compound 308, N-{3-[2-(4-chloro-3-fluorophenoxy)acetamido]bicyclo[1.1.1]pentan-1-yl}-1,3-thiazole-4-carboxamide]: the EC50 lay within 250 to 1000 nM.
Turning to `CC(O)c1ccnc(C(=O)NC23CC(NC(=O)COc4ccc(Cl)c(F)c4)(C2)C3)c1` (centres unmarked) [Compound 524, N-{3-[2-(4-chloro-3-fluorophenoxy)acetamido]bicyclo[1.1.1]pentan-1-yl}-4-(1-hydroxyethyl)pyridine-2-carboxamide], the EC50 was 250 to 1000 nM.
For `Cc1cc(C)n2nc(C(=O)NC34CCC(NC(=O)COc5ccc(Cl)c(F)c5)(CC3)[C@@H](O)C4)nc2n1` [Compound 750, N-{(3S)-4-[2-(4-chloro-3-fluorophenoxy)acetamido]-3-hydroxybicyclo[2.2.2]octan-1-yl}-5,7-dimethyl[1,2,4]triazolo[1,5-a]pyrimidine-2-carboxamide], the EC50 was more than 2000 nM.
With `Cc1ccoc1C(=O)NC12CC(NC(=O)COc3ccc(Cl)c(F)c3)(C1)C2` [Compound 545, N-{3-[2-(4-chloro-3-fluorophenoxy)acetamido]bicyclo[1.1.1]pentan-1-yl}-3-methylfuran-2-carboxamide] the figure was 250 to 1000 nM.
Turning to `N#Cc1cccc(C(=O)NC23CCC(NC(=O)COc4ccc(Cl)c(F)c4)(CC2)CC3O)c1` (centres unmarked) [Compound 209, N-{4-[2-(4-chloro-3-fluorophenoxy)acetamido]-2-hydroxybicyclo[2.2.2]octan-1-yl}-3-cyanobenzamide], the EC50 lay in the range of 250 to 1000 nM.
With `CCc1ncc(C(=O)NC23CC(NC(=O)COc4ccc(Cl)c(F)c4)(C2)C3)s1` [Compound 292, N-{3-[2-(4-chloro-3-fluorophenoxy)acetamido]bicyclo[1.1.1]pentan-1-yl}-2-ethyl-1,3-thiazole-5-carboxamide], the EC50 was in the range of 50 to 250 nM.
With `O=C(COc1ccc(Cl)c(F)c1)NC12CCC(NS(=O)(=O)c3ccc(C(F)(F)F)cc3)(CC1)[C@@H](O)C2` [Compound 663, 2-(4-chloro-3-fluorophenoxy)-N-[(3S)-3-hydroxy-4-{[4-(trifluoromethyl)benzene-1-sulfonyl]amino}bicyclo[2.2.2]octan-1-yl]acetamide] the figure was 50 to 250 nM; with `COc1csc(C(=O)NC23CC(NC(=O)COc4ccc(Cl)c(F)c4)(C2)C3)c1` [Compound 857, N-{3-[2-(4-chloro-3-fluorophenoxy)acetamido]bicyclo[1.1.1]pentan-1-yl}-4-methoxythiophene-2-carboxamide], 50 to 250 nM; with `CC(C)(C)OC(=O)NCc1ccnc(C(=O)NC23CC(NC(=O)COc4ccc(Cl)c(F)c4)(C2)C3)c1` [Compound 192, tert-butyl {[2-({3-[2-(4-chloro-3-fluorophenoxy)acetamido]bicyclo[1.1.1]pentan-1-yl}carbamoyl)pyridin-4-yl]methyl}carbamate], 250 to 1000 nM.
With `Cc1nnc(NC23CC(NC(=O)COc4ccc(Cl)c(F)c4)(C2)C3)o1` [Compound 393, 2-(4-chloro-3-fluorophenoxy)-N-{3-[(5-methyl-1,3,4-oxadiazol-2-yl)amino]bicyclo[1.1.1]pentan-1-yl}acetamide] the figure was more than 2000 nM; with `Cc1cc(C(=O)NC23CCC(NC(=O)COc4ccc(Cl)c(F)c4)(CC2)CC3F)on1` (centres unmarked) [Compound 374, N-{4-[2-(4-chloro-3-fluorophenoxy)acetamido]-2-fluorobicyclo[2.2.2]octan-1-yl}-3-methyl-1,2-oxazole-5-carboxamide], more than 2000 nM; with `O=C(COc1ccc(Cl)c(F)c1)NC12CC(NC(=O)c3ccon3)(C1)C2` [Compound 820, N-{3-[2-(4-chloro-3-fluorophenoxy)acetamido]bicyclo[1.1.1]pentan-1-yl}-1,2-oxazole-3-carboxamide], more than 2000 nM.
With `CCNC(=O)c1ccc(C(=O)NC23CC(NC(=O)COc4ccc(Cl)c(F)c4)(C2)C3)nc1` [Compound 270, N^2-{3-[2-(4-chloro-3-fluorophenoxy)acetamido]bicyclo[1.1.1]pentan-1-yl}-N^5-ethylpyridine-2,5-dicarboxamide], the 50% effective concentration (EC50) was more than 2000 nM.
With `Cc1nc(C(=O)NC23CC(NC(=O)COc4ccc(Cl)c(F)c4)(C2)C3)cs1` [Compound 539, N-{3-[2-(4-chloro-3-fluorophenoxy)acetamido]bicyclo[1.1.1]pentan-1-yl}-2-methyl-1,3-thiazole-4-carboxamide] the figure was 50 to 250 nM; with `O=C(COc1ccc(Cl)c(F)c1)NC12CC(NC(=O)c3ncc4ccccc4n3)(C1)C2` [Compound 749, N-{3-[2-(4-chloro-3-fluorophenoxy)acetamido]bicyclo[1.1.1]pentan-1-yl}quinazoline-2-carboxamide], 50 to 250 nM.
Turning to `O=C(COc1ccc(Cl)c(F)c1)NC12CC(Nc3nc4ccccc4o3)(C1)C2` [Compound 360, N-{3-[(1,3-benzoxazol-2-yl)amino]bicyclo[1.1.1]pentan-1-yl}-2-(4-chloro-3-fluorophenoxy)acetamide], the EC50 is more than 2000 nM.
As for `O=C(COc1ccc(Cl)c(F)c1)NC12CC(NC(=O)c3cnc(C4CC4)o3)(C1)C2` [Compound 583, N-{3-[2-(4-chloro-3-fluorophenoxy)acetamido]bicyclo[1.1.1]pentan-1-yl}-2-cyclopropyl-1,3-oxazole-5-carboxamide], the EC50 is 50 to 250 nM.
With `N#Cc1ccsc1C(=O)NC12CC(NC(=O)COc3ccc(Cl)c(F)c3)(C1)C2` [Compound 860, N-{3-[2-(4-chloro-3-fluorophenoxy)acetamido]bicyclo[1.1.1]pentan-1-yl}-3-cyanothiophene-2-carboxamide] the figure was 1000 to 2000 nM.
As for `O=C(COc1ccc(Cl)c(F)c1)NC12CC(NC(=O)c3csc(N4CCOCC4)n3)(C1)C2` [Compound 771, N-{3-[2-(4-chloro-3-fluorophenoxy)acetamido]bicyclo[1.1.1]pentan-1-yl}-2-(morpholin-4-yl)-1,3-thiazole-4-carboxamide], the EC50 is more than 2000 nM.
In the case of `O=C(COc1ccc(Cl)c(F)c1)NC12CC(NC(=O)c3cc(/C=C/CO)ccn3)(C1)C2` [Compound 200, N-{3-[2-(4-chloro-3-fluorophenoxy)acetamido]bicyclo[1.1.1]pentan-1-yl}-4-[(1E)-3-hydroxyprop-1-en-1-yl]pyridine-2-carboxamide], the EC50 lay in the range of 50 to 250 nM.
